One compound from US20090264421A1 (priority 2007, published 2009) can be followed below.

For data set [1], the system named is patient CD138+ myeloma cells and CD138- bone marrow cells. In kind it is cell-based, human. The conditions noted are these: 10 μM for 20 minutes, corrected for average cell volumes, 4 patients. Here is the method: FIG. 7. Chaetocin induces oxidative stress in A549 cells without appreciable depletion of intracellular reduced glutathione levels, while the selective cytotoxicity of chaetocin in freshly collected myeloma cells appears to be attributable to their increased sensitivity to oxidative stressors. […] Chaetocin-induced increased oxidative species are attenuated by co-treatment with 10 mM NAC (C). D. Summary of results from FACS indicating changes of oxidative species induced in response to various treatments. Results shown are representative of three independent FACS experiments as described in the text; *p<0.05, **p<0.01. E. Effects of chaetocin or hydrogen peroxide (in comparison to diluent) on ROS (superoxide) levels in U266 myeloma cells as assessed using FACS analyses and hydroethidium as an ROS-sensitive FACS probe. Error bars indicate one sample standard deviation, results replicated in triplicate; ***p<0.001. […] Glutathione levels were assessed by spectrophotometric assay as described below. […] Cells were treated with 10 μM chaetocin for 20 minutes prior to assay, and calculated intracellular chaetocin levels were measured by HPLC with adjusted for differences in average cell volume (calculated from measured cell radii ascertained via light microscopy). […]

Data set [2] addresses T1, TrxR1 (Rattus norvegicus, UniProt O89049).
T1 sequence (O89049 1-499): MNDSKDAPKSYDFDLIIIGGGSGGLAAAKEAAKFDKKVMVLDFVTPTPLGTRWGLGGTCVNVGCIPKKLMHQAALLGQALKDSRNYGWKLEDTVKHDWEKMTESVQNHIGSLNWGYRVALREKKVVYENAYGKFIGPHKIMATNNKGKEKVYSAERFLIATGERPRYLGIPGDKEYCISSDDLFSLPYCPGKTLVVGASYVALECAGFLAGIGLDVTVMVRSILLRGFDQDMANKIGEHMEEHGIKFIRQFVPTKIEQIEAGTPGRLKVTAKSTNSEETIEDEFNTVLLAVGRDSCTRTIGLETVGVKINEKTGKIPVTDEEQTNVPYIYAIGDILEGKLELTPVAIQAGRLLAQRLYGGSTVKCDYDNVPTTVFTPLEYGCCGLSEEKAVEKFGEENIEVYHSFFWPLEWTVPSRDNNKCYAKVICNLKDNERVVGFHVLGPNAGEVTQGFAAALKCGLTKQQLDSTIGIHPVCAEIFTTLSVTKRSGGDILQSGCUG
Conditions: substrate of TrxR1, NADPH oxidation. An excerpt:
Reagents: Chaetocin, β-Nicotinamide adenine dinucleotide 2′-phosphate reduced tetrasodium salt hydrate (NADPH), rat liver thioredoxin reductase, 5,5′-dithiobis(2-nitrobenzoic acid) (DTNB), oxidized glutathione (GSSG), bovine insulin, gliotoxin, thioredoxin reductase assay kit, anti-actin antibody and Celytic lysis reagent were purchased from Sigma (St. Louis, Mo.); yeast glutathione reductase and Complete Protease Inhibitor Tablets from Roche (Indianapolis, Ind.); BCA protein from Pierce (Rockford, Ill.); oxidized E. coli thioredoxin and dithiothreitol (DTT) from Promega (Madison, Wis.); verruculogen from Calbiochem (San Diego, Calif.); 4-acetamido-4′-maleimidylstilbene-2,2′-disulfonic acid (AMS) and Lipofectamine-Plus from Invitrogen (Carlsbad, Calif.); chaetomin from Alexis Biochemicals (San Diego, Calif.); and anti-thioredoxin antibody from Cell Signaling (Beverly, Mass.). HeLa cells were obtained from ATCC.
Steady-state kinetics: The 100 μL reaction consisted of 100 mM potassium phosphate (pH 7.0), 10 mM EDTA, 0.0004 U/μL thioredoxin reductase and chaetocin or other compounds as indicated. The assay was carried out in a 96-well quartz plate and the oxidation of NADPH was measured as a change in absorption at 340 nm. The initial velocities of the reaction were calculated from the decrease in the absorbance between 0 and 5 min (slope), and on a pathlength of 0.3 cm and NADPH ε=6.22 mmol^−1*cm^−1*L. The velocity versus concentration data were then analyzed using SigmaPlot's Enzyme Kinetics 1.3 program (Systat Software, San Jose, Calif.).

The subject of the next data set is normal plasma cells. Nature of the data set: Survival of normal plasma cells and matched normal leucocytes, trypan blue exclusion. In kind it is cell-based, human. The conditions noted are these: 24 h exposure. Here is the method: A and B. Effects of chaetocin on survival of MGUS plasma cells and matched patient normal leucocytes from two patients (assessed by trypan blue exclusion assay, 24 h chaetocin exposures). C and D. Effects of chaetocin on survival of normal plasma cells and matched patient normal leucocytes from two patients (assessed by trypan blue exclusion assay, 24 h chaetocin exposures).

For data set [3], the target named is T1, TrxR1. Kind of data set: Thioredoxin reductase activity assay (DTNB method). The format is biochemical. Set-up: rat liver thioredoxin reductase; purchased Sigma (St. Louis, Mo.). The conditions noted are these: cell-free; read-out: IC50, TrxR1-initiated turnover of DTNB. The protocol: HeLa cells were obtained from ATCC.
Final concentrations were 0.0005 U/μL of enzyme and 0.24 mM NADPH in the presence of chaetocin as indicated in a 100 μL reaction. The reaction was started by the addition of DTNB (3 mM) and the change in absorbance at 405 nm was monitored in a plate reader. Activity was calculated as the increase in absorbance between 2 and 5 min after DTNB addition.

What is called Km is the concentration of substrate that gives half-maximal velocity. The IC50 is the concentration that gives 50% inhibition. For `CN1C(=O)[C@@]23C[C@]4([C@]56C[C@@]78SS[C@@](CO)(C(=O)N7[C@H]5Nc5ccccc56)N(C)C8=O)c5ccccc5N[C@@H]4N2C(=O)[C@]1(CO)SS3` [chaetocin], in data set [1], the “intracellular accumulation in CD138- leukocytes versus CD138+ myeloma cells” value is “no indication of lessened intracellular accumulation”. In addition, the Km on TrxR1 [2] was 4.6 ± 0.6 µM. In the data set on normal plasma cells, the “effect on granulocytes and other leukocytes” value was “largely sparing granulocytes and other leukocytes”. At TrxR1 [3], the IC50 is around 4 µM.
